Test system: adult subjects with psoriasis
Test: Phase II/2b psoriasis study: safety and tolerability
Type: in vivo, human
Description: Safety was assessed by the monitoring and recording of all AEs and serious adverse events (SAEs); evaluation of local (application site) tolerability; monitoring of hematology (including peripheral blood Immunophenotyping and Immunoglobulins), clinical chemistry, and vital signs; and the performance of ECGs and physical examinations.
Safety assessments included incidence, frequency and severity of AEs, evaluation of local (application-site) tolerability, clinical laboratory parameters, vital signs, electrocardiogram changes, and physical examinations. An unblinded Independent Data Monitoring Committee monitored patient safety. Investigators assessed the overall degree of irritation at the application sites using a scale of 0 (no irritation) to 4 (very severe/strong reaction) at each study visit. A score of 3 or 4 was reported as an AE. Study treatment was discontinued if a score of 4 was noted. Subject-reported tolerability was assessed using a 5-point tolerability scale of 0 (none) to 4 (strong/severe) to assess the presence and degree of burning/stinging and itching at the application site within 2 hours following application of tapinarof or vehicle.

[1] = all cases in active treatment groups
[2] = pooled active treatment groups (n=152)
[3] = pooled tapinarof groups (n=152)

CC(C)c1c(O)cc(/C=C/c2ccccc2)cc1O [Tapinarof, 3,5-Dihydroxy-4-isopropyl-trans-stilbene]
Application-site dermatitis (0.5% BID): 0 n
Dermatitis allergic (0.5% BID): 0 n
Miliaria (0.5% BID): 0 n
Urticaria (0.5% BID): 0 n
headache (0.5% BID): 0 n
Acne (0.5% QD): 0 n
Dermatitis allergic (0.5% QD): 0 n
Serious TEAEs (0.5% QD): 0 n
Urticaria (0.5% QD): 0 n
Vomiting (0.5% QD): 0 n
Miliaria (1% BID): 0 n
Urticaria (1% BID): 0 n
Vomiting (1% BID): 0 n
Nasopharyngitis (1% BID, listed as GSK2894512): 1 n
folliculitis (1% BID, listed as GSK2894512): 8 n
Acne (1% QD): 0 n
Dermatitis allergic (1% QD): 0 n
Nasopharyngitis (1% QD): 0 n
Vomiting (1% QD): 0 n
folliculitis, median duration (resolved events) (active treatment groups): 55 days
folliculitis, median time to onset (active treatment groups): 26 days
headache, median duration (active treatment groups): 3 days
headache, median time to onset (active treatment groups): 2.5 days
nasopharyngitis, median duration (active treatment groups): 12 days
nasopharyngitis, median time to onset (active treatment groups): 13 days
contact dermatitis, median duration [1]: 32 days
contact dermatitis, median time to onset [1]: 30 days
subjects with serious TEAEs (all in Tapinarof treatment groups, none treatment-related): 7 subjects
Nasopharyngitis [2]: 5%
Vomiting [2]: 2%
headache [2]: 4%
subjects permanently discontinuing treatment due to TEAEs [2]: 10%
subjects with TEAEs [2]: 56%
subjects with mild TEAEs [2]: 27%
subjects with moderate TEAEs [2]: 22%
subjects with severe TEAEs [2]: 7%
subjects with treatment-related TEAEs [2]: 22%
treatment-related monocyte count decreased [2]: 1%
contact dermatitis [3]: 8%
folliculitis [3]: 13%
treatment-related folliculitis [3]: 10%
subjects with TEAEs considered related to treatment (treatment groups pooled): 34 subjects
subjects with at least one AE (treatment groups pooled): 89 subjects
subjects with at least one TEAE (treatment groups pooled): 85 subjects

Source: patent publication US12569453B2, “Use of tapinarof for the treatment of atopic dermatitis” (Dermavant Sciences GmbH, priority 2018, dated 2026)
